Experimental findings from patent publication US20230210999A1, “TARGETED PROTEASE DEGRADATION (TED) PLATFORM” (EUBULUS BIOTHERAPEUTICS INC., priority 2020, published 2023) are described below.

The structures appear in SMILES notation. Like-named read-outs stand apart in the source and are kept apart here.

Common to all, as to format: cell-based, human
One test has as its system Daudi cells. The test is described as follows: Cell proliferation experiment, Daudi. The note with it: Homo sapiens, Daudi, read-out: Inhibitory activity IC50 on Daudi. As to the method: (§1) Reagents: RPMI-1640 medium, McCoy's 5A medium, IMDM medium, MEM medium, L-15 medium, fetal bovine serum. Penicillin-Streptomycin double antibody, trypsin, etc., 2-mercaptoethanol, NEAA, pyruvate, etc.
(§2) The cells were cultured in conventional ways, and the cells should be passed at least 2 generations before plating. Cells at the logarithmic growth phase were collected, prepared into single cell suspensions and counted. The concentration of cells was adjusted to the desired concentration, and cells were inoculated into a 96-well cell culture plate at 100 μl per well. 100 μL of complete medium of the test compound were added to each well, set up 2 duplicate wells for each concentration, and diluted with a 5-fold gradient, and continued to culture for 72 h. All cells were subjected to IC50 test for corresponding samples. The experimental results are shown in Test Example 4.
(§3) The fluorescence intensity of each well was detected using the Alarm blue method, and IC50 was calculated.
(§4) IC50 was calculated according to the following formula:
(§5) Y=Max+(Min−Max)/[1+(X/IC50)×Slope]
(§6) wherein Min, Max and Slope represent the minimum, maximum and slope respectively.

The next test relates to MDA-MB-231 cells. The test is described as follows: Cell proliferation experiment, MDA-MB-231. Particulars: Homo sapiens. As to the method: as §1, §2, §3, §4, §5, §6
A further test deals with MV4;11 cells. The test is described as follows: Cell proliferation experiment (Alamar blue, 72 h), MV4;11. The note with it: Homo sapiens. Here is the method: as §1, §2, §3, §4, §5, §6
(The colour change of resazurin is a common sign of viable cells or microbes.)

Another test relates to NCIH82 cells. The test is described as follows: Cell proliferation experiment, NCI-H82. The note with it: Homo sapiens, NCI-H82, NCI-H82 cells; read-out: Inhibitory activity IC50 on NCI-H82. As to the method:
as §1, §2, §3, §4, §5, §6

Where [1] appears, read: MDA-MB-231, MDA-MB-231 cells, read-out: Inhibitory activity IC50 on MDA-MB-231.
Setting [2] is: MV4-11, MV4;11 cells, read-out: Inhibitory activity IC50 on MV4;11.

Take `CC[C@@H]1C(=O)N(C)c2cnc(Nc3ccc(C(=O)N[C@H]4CC[C@@H](NC5CCN(CCC#Cc6cccc7c6CN(C6CCC(=O)NC6=O)C7=O)CC5)CC4)cc3OC)nc2N1C1CCCC1` (stereo partly drawn) [UB-180934]: the IC50 is 10 to 100 nM in the test on Daudi cells (Daudi cells); 100 to 1000 nM with MDA-MB-231 cells (setting [1]); ≤ 100 nM in the test on MV4;11 cells (MV4-11, 72 h, MV4;11 cells, 72 h, read-out: Inhibitory activity IC50 of tested compounds on MV4;11 cells); 10 to 100 nM with MV4;11 cells (setting [2]).

Regarding `CC[C@@H]1C(=O)N(C)c2cnc(Nc3ccc(C(=O)NCCCOCCCN(CCC#Cc4cccc5c4CN(C4CCC(=O)NC4=O)C5=O)C(=O)OC(C)C(C)SSC[C@@H](NC(=O)[C@@H](CC(=O)O)NC(=O)[C@@H](CC(=O)O)NC(=O)[C@@H](CCCNC(=N)N)NC(=O)[C@@H](CC(=O)O)NC(=O)CC[C@H](NC(=O)c4ccc(NCc5cnc6nc(N)[nH]c(=O)c6n5)cc4)C(=O)O)C(=O)O)cc3OC)nc2N1C1CCCC1` (stereo partly drawn) [UB-180939], the IC50 with Daudi cells was 100 to 1000 nM; with MDA-MB-231 cells (MDA-MB-231, read-out: Inhibitory activity IC50 on MDA-MB-231) it was > 1000 nM; with MV4;11 cells (MV4-11, read-out: Inhibitory activity IC50 on MV4;11), 10 to 100 nM.

For `CC[C@@H]1C(=O)N(C)c2cnc(Nc3ccc(-c4cn(CCCCCCNCCC#Cc5cccc6c5CN(C5CCC(=O)NC5=O)C6=O)nn4)cc3OC)nc2N1C1CCCC1` (stereo partly drawn) [UB-180949], the IC50 in the test with Daudi cells (Daudi cells) was 10 to 100 nM; in the test on MDA-MB-231 cells (setting [1]) it was 10 to 100 nM; in the test on MV4;11 cells (setting [2]), < 10 nM.

Consider `O=C1CCC(N2Cc3cc(NC(=O)CCOCCOCCOCCn4cc(-c5ccc(Nc6ncc7c(n6)-c6ccc(Cl)cc6C(c6c(F)cccc6F)=NC7)cc5)nn4)ccc3C2=O)C(=O)N1` (stereo not drawn) [UB-180950], for which the IC50 is 100 to 1000 nM in the test with Daudi cells (Daudi cells), > 1000 nM in the test on MDA-MB-231 cells (setting [1]), 100 to 1000 nM in the test with NCIH82 cells and < 10 nM with MV4;11 cells (setting [2]).

For the compound `CC[C@@H]1C(=O)N(C)c2cnc(Nc3ccc(-c4cn([C@H]5CC[C@@H](NCCCCCC#Cc6cccc7c6CN(C6CCC(=O)NC6=O)C7=O)CC5)nn4)cc3OC)nc2N1C1CCCC1` (stereo partly drawn) [UB-180977], the IC50 in the test on Daudi cells (Daudi cells) was 10 to 100 nM; in the test with MDA-MB-231 cells (setting [1]) it was < 10 nM; with MV4;11 cells (setting [2]), < 10 nM.

Consider `CC[C@@H]1C(=O)N(C)c2cnc(Nc3ccc(C(=O)N[C@H]4CC[C@@H](NCCCCCC#Cc5cccc6c5CN(C5CCC(=O)NC5=O)C6=O)CC4)cc3OC)nc2N1C1CCCC1` (stereo partly drawn) [UB-180978], for which the IC50 with Daudi cells (Daudi cells) is 10 to 100 nM; in the test on MDA-MB-231 cells (setting [1]) it was < 10 nM; with MV4;11 cells (setting [2]), < 10 nM.

As to `CC[C@@H]1C(=O)N(C)c2cnc(Nc3ccc(-c4cn([C@H]5CC[C@@H](N(CCOCCC#Cc6cccc7c6CN(C6CCC(=O)NC6=O)C7=O)C(=O)OC(C)C(C)SSC[C@@H](NC(=O)[C@@H](CC(=O)O)NC(=O)[C@@H](CC(=O)O)NC(=O)[C@@H](CCCNC(=N)N)NC(=O)[C@@H](CC(=O)O)NC(=O)CC[C@H](NC(=O)c6ccc(NCc7cnc8nc(N)[nH]c(=O)c8n7)cc6)C(=O)O)C(=O)O)CC5)nn4)cc3OC)nc2N1C1CCCC1` (stereo partly drawn) [UB-180979], the figures for the IC50 with Daudi cells (Daudi cells), with MDA-MB-231 cells (setting [1]) and in the test on MV4;11 cells (setting [2]) were 10 to 100 nM, 100 to 1000 nM and 10 to 100 nM, respectively.

For `O=C1CCC(N2Cc3cc(NC(=O)CCCCCCCCCNCCn4cc(-c5ccc(Nc6ncc7c(n6)-c6ccc(Cl)cc6C(c6c(F)cccc6F)=NC7)cc5)nn4)ccc3C2=O)C(=O)N1` (stereo not drawn) [UB-180986], the half-inhibitory concentration (IC50) with Daudi cells (Daudi cells) was 100 to 1000 nM; in the test with MDA-MB-231 cells (setting [1]) it was > 1000 nM; in the test with NCIH82 cells it was 100 to 1000 nM; in the test on MV4;11 cells (setting [2]), 10 to 100 nM.

With `CC[C@@H]1C(=O)N(C)c2cnc(Nc3ccc(-c4cn([C@H]5CC[C@@H](NCCOCCCC#Cc6cccc7c6CN(C6CCC(=O)NC6=O)C7=O)CC5)nn4)cc3OC)nc2N1C1CCCC1` (stereo partly drawn) [UB-180992], the IC50 with Daudi cells (Daudi cells) is 10 to 100 nM; with MDA-MB-231 cells (setting [1]) it was 10 to 100 nM; in the test with MV4;11 cells (setting [2]), < 10 nM.

For `CC[C@@H]1C(=O)N(C)c2cnc(Nc3ccc(-c4cn([C@H]5CC[C@@H](NCCOCCCC#Cc6ccc7c(c6)CN(C6CCC(=O)NC6=O)C7=O)CC5)nn4)cc3OC)nc2N1C1CCCC1` (stereo partly drawn) [UB-180993], the IC50 in the test with Daudi cells (Daudi cells), in the test on MDA-MB-231 cells (setting [1]) and in the test on MV4;11 cells (setting [2]) was 10 to 100 nM in each case.

On to `CC[C@@H]1C(=O)N(C)c2cnc(Nc3ccc(-c4cn([C@H]5CC[C@@H](NCCCOCCC#Cc6cccc7c6CN(C6CCC(=O)NC6=O)C7=O)CC5)nn4)cc3OC)nc2N1C1CCCC1` (stereo partly drawn) [UB-180998], for which the IC50 in the test on Daudi cells (Daudi cells) was 10 to 100 nM; in the test on MDA-MB-231 cells (setting [1]), 10 to 100 nM; in the test with MV4;11 cells (setting [2]), < 10 nM.

For the compound `CC[C@@H]1C(=O)N(C)c2cnc(Nc3ccc(-c4cn([C@H]5CC[C@@H](NCCCOCCC#Cc6ccc7c(c6)CN(C6CCC(=O)NC6=O)C7=O)CC5)nn4)cc3OC)nc2N1C1CCCC1` (stereo partly drawn) [UB-180999], the concentration for half-maximal inhibition (IC50) is 10 to 100 nM in the test with Daudi cells (Daudi cells), 10 to 100 nM with MDA-MB-231 cells (setting [1]) and < 10 nM in the test with MV4;11 cells (setting [2]).

In the case of `CC[C@@H]1C(=O)N(C)c2cnc(Nc3ccc(-c4cn([C@H]5CC[C@@H](NCCOCCC#Cc6ccc7c(c6)CN(C6CCC(=O)NC6=O)C7=O)CC5)nn4)cc3OC)nc2N1C1CCCC1` (stereo partly drawn) [UB-181004], the IC50 is 10 to 100 nM in the test on Daudi cells (Daudi cells), 10 to 100 nM in the test on MDA-MB-231 cells (setting [1]) and < 10 nM in the test with MV4;11 cells (setting [2]).

Usually IC50 stands for the point on the concentration scale where inhibition reaches its midpoint.
